We go through one compound from patent publication EP1891955A1, “Use of 1,2,3-substituted indolizine derivatives, inhibitors of FGFs, for the preparation of a medicament intended for the treatment of degenerative joint diseases” (Sanofi-Aventis, priority 2006, dated 2008).

Each structure is given as a SMILES string. Marks after values point to notes of the source that are not given here.

The series concerns STR/1N mice. Kind of series: Knee joint damage in STR/1N mice developing osteoarthritis spontaneously (semi-quantitative histopathological score). In kind it is in vivo. As to conditions: male STR/1N mice, 6-week treatment. How it is done:
The effect of an FGF-antaqonist on the degree of knee joint damage in STR/1N mice, which develop osteoarthritis spontaneously
The experiment was performed according to the regulations of the German Animal Protection Law. Fifty 9-week old male STR/1N mice (strain bred and maintained at sanofi-aventis, Dept. of Laboratory Animal Safety and Welfare, D-65926 Frankfurt/Main, Germany) were randomized to 2 experimental groups (n=25/group). The animals were housed individually in standard mouse cages (room temperature 20 - 22°C; relative humidity 55-75%; 12 hours light/dark cycle) with free access to the powdered mouse standard food (Sniff R/M-H, Soest, Germany) and tap water. To achieve sustained drug exposure, the sodium 2-amino-5-[(1-methoxy-2-methylindolizin-3-yl)carbonyl]benzoic acid monohydrate was blended with the standard food at concentrations of 300 ppm (0.3 g/kg food) and administered to one experimental group of 25 mice ad libitum. The control group of 25 mice received unsupplemented standard food. Following the 6-week treatment period the animals were sacrificed by CO2 inhalation, their left knee joints were removed and decalcified for 3 days with formic acid (decalcifier, Shandon, Frankfurt/M., Germany), fixed in formalin and embedded in paraffin. Four sequential coronal sections of the complete knee joints (7 µm, 0.1 mm apart), stained with Hematoxyline-Eosine and Saffranin-O were evaluated by a blinded observer for the degree of histopathological joint alterations by using a semi-quantitative score as described in Table 1. Table 1: Semiquantitative Histopathological Score of Osteoarthritic Joint Damage in STR/1N Mice
The osteoarthritis joint damage was assessed by a semi-quantitative histopathological score. The STR/1N mice developed moderate osteoarthritis in the medial tibial plateau of the knee joint.

For the compound `COc1c(C)c(C(=O)c2ccc(N)c(C(=O)O)c2)n2ccccc12.O.[Na]` [sodium 2-amino-5-[(1-methoxy-2-methylindolizin-3-yl)carbonyl]benzoic acid monohydrate], under “300 ppm (0.3 g/kg food) in food ad libitum, left knee joint, maximal total joint score = 128, p = 0.0118 Mann Whitney Test vs control 34.3 (3.8)”, the “Histopathological Score Mean (SEM)” value was 23.5 (3.7)*. Further, the tolerability entry (300 ppm in food) is reported as “well tolerated”. Also, the “reduction of the degree of histopathological joint damage” value (300 ppm in food, versus non-treated control) was 32%.
